In patent publication US11584763B2, “Chromenopyridine derivatives as phosphatidylinositol phosphate kinase inhibitors” (HIBERCELL, INC., priority 2017, dated 2023):

Experiments:
Format in all cases: biochemical
[1] = target: T1, PIP4K 2A (Homo sapiens, UniProt P48426); test: Kinase Assay PIP4K2 A (PIP4KtypeIIA inhibition assay); design: made in house; host or cells: E. coli; conditions: compounds listed under IC50 bin headings
T1 sequence (P48426 1-406): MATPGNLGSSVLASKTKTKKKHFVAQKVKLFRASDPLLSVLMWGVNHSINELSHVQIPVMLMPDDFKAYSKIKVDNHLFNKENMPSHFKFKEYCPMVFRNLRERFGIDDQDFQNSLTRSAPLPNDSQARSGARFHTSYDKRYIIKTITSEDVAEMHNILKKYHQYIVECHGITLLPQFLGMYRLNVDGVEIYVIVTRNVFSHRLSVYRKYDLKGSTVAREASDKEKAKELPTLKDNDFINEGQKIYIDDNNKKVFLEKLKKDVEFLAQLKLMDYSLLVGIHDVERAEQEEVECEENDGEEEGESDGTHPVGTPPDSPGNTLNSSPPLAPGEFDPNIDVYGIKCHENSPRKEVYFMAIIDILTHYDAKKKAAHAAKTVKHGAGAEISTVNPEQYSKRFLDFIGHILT
Excerpt: GST tagged PIP4KtypeIIA and B enzymes were overexpressed in E. Coli and purified to >80% homogeneity. Phosphatidyl inositol-5-phosphate (PI5P, Cat. #850152, Avanti Polar Lipids Inc.) was used as the lipid substrate and phosphatidyl ethanolamine (DOPE 18:1, Cat. #850725, Avanti Polar Lipids Inc.) was used as the carrier lipid for assays. Ultrapure ATP and GTP was purchased from Bellbrooke Labs. ADP Glo reagents were obtained from Promega. Transcreener FI reagent was obtained from Bellbrooke labs.
Enzyme preparation: GST-tagged PIP4KtypeIIA (5 uL, 1.43 mg/mL) was diluted (1:10) to 50 uL using HNE buffer. From the 1:10 diluted stock, a 6.4 uL aliquot was diluted further to 5 mL using HNE buffer to yield 5× enzyme stock (2.5 nM).
Lipid Preparation: In a 10 mL pyrex glass vial, 1 ug of PI5P and 1 ug of DOPE were suspended in 2.5 mL of HEPES buffer mix and 2.5 mL of H:E buffer. The contents were mixed and sonicated for 3 min to yield a translucent lipid stock.
Compound Preparation: Compounds were stored as 5 mM stocks in neat DMSO as room temperature in glass vials. 5 mM stocks were diluted to 2 mM and then serially diluted (3×) in neat DMSO in 96 well polypropylene plates. From the serially diluted stocks, 3 uL was delivered into 250 uL of 25% DMSO (in water) to generate 5× compound stocks. Typically, the highest compound conc. was 24 uM.
The assay volume was kept at 25 uL. To each well of the reaction plate, 10 uL of lipid stock (1:1 ratio PI5P:DOPE) was delivered. This was followed by the addition of 5 uL of compound in 25% DMSO. Then, to each well, 5 uL of 2.5 nM (5×) typeIIA enzyme was delivered. The contents were mixed well and incubated for 1 h at 27 C. After 1 h, reaction was initiated by adding 5 uL of 50 uM ATP and the contents were mixed well with a multi-channel pipetteman. The final concentration of the reagents are as follows: 50 mM HEPES, pH 7.3, 10 mM MgCl2, 20 mM NaCl, 0.01% v/v triton-X100, 5% DMSO, 10 uM ATP, 80 uM (2 ug) PI5P, 2 ug DOPE, and 0.5 nM PIP4KIIA. Typically, the highest conc. of compounds was 4.8 uM and the lowest conc. was 0.
After 1 hr, the reaction was quenched by adding 25 uL of ADP Glo reagent. The contents were incubated for 1 hr. Afterwards, 50 uL of kinase detection reagent was delivered. The contents were incubated for another hour. The luminescence was read using Molecular Devices Paradigm plate reader. […] The blanks were averaged and subtracted from all other wells. Using a calibration curve, RLU was converted to uM ADP (product). IC50 was calculated by plotting the residual activity (expressed as % No inhibitor control) vs. log [Inh. conc.]

[2] = target: T2, PIP4K2B (Homo sapiens, UniProt P78356); test: Trans-FI P kinase assay PIP4K2B (PIP4KtypeIIB inhibition assay); conditions: compounds listed under IC50 bin headings; 100 uM GTP; read-out: Trans-FI P kinase assays: PIP4K2B IC50
T2 construct: made in house; host or cells: E. coli
T2 sequence (P78356 1-416): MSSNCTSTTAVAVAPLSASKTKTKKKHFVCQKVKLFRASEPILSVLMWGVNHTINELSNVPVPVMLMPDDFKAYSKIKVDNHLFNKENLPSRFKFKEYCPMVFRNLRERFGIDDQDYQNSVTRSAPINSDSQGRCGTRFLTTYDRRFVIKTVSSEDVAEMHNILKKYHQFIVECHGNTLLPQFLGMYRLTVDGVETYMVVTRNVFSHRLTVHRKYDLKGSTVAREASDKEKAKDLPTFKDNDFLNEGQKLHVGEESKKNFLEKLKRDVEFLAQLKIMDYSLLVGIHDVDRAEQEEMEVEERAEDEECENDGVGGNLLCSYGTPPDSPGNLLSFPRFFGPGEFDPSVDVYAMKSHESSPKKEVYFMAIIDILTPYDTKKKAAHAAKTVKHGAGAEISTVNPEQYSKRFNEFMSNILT
Procedure, shortened: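 Transcreener FI fluorescence read-out of GDP formed by E. coli-expressed GST-PIP4K2B (5 nM) using 100 uM GTP and 80 uM PI5P with DOPE carrier lipid, pH 7.3, 2 h reaction. Compounds (up to 4.8 uM) were preincubated with enzyme 1 h at 27 C; IC50 fitted from residual activity relative to no-inhibitor control.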

[3] = target: T1, PIP4K 2A; test: ADP-glo kinase assay PIP4K 2A; design: 4 nM PIP4K2A (full length protein, SignalChem); purchased SignalChem; conditions: compounds listed under IC50 bin headings
Procedure, shortened: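 Inhibition was calculated versus DMSO controls from ADP-Glo luminescence and fitted to IC50 over a 10-point, threefold series. Compound was first pre-incubated 15 min at room temperature with PIP4K2A (full-length; 4 nM in the enzyme/substrate mix) and PI(5)P diC8 (100 μM in that mix). The reaction then ran for 1 h after adding 60 μM ATP solution, in MOPS pH 7.2/MgCl2/Tween buffer.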

Row | SMILES | IC50 [1] | IC50 [2] | IC50 [3]
1 | CN(C)C(=O)c1ccc2c(c1)OC(C1CC1)c1cc(Nc3cccnc3)ncc1-2 (stereo not drawn) [Example 34, 5-cyclopropyl-N,N-dimethyl-3-(pyridin-3-ylamino)-5H-chromeno[4,3-c]pyridine-8-carboxamide] | 1 to 10 nM | 10 to 100 nM | 1 to 10 nM
2 | CC1Oc2cc(N3CCCC3=O)ccc2-c2cnc(Nc3cncc(N(C)S(C)(=O)=O)c3)cc21 (stereo not drawn) [Example 48, N-methyl-N-(5-((5-methyl-8-(2-oxopyrrolidin-1-yl)-5H-chromeno[4,3-c]pyridin-3-yl)amino)pyridin-3-yl)methanesulfonamide] | 1 to 10 nM | 100 to 1000 nM | 1 to 10 nM
3 | CC1Oc2cc(N3CCCC3=O)ccc2-c2cnc(Nc3cncc(C4(C#N)CC4)c3)cc21 (stereo not drawn) [Example 39, 1-(5-((5-methyl-8-(2-oxopyrrolidin-1-yl)-5H-chromeno[4,3-c]pyridin-3-yl)amino)pyridin-3-yl)cyclopropane-1-carbonitrile] | ≤ 1 nM | 10 to 100 nM | –
4 | CC1Oc2cc(N3CCCC3=O)ccc2-c2cnc(Nc3cnc4c(c3)N3[C@H](CO4)CN(C)S3(=O)=O)cc21 (stereo partly drawn) [Example 187, 1-(5-methyl-3-(((S)-2-methyl-1,1-dioxido-2,3,3a,4-tetrahydropyrido[2,3-b][1,2,5]thiadiazolo[2,3-d][1,4]oxazin-8-yl)amino)-5H-chromeno[4,3-c]pyridin-8-yl)pyrrolidin-2-one] | 10 to 100 nM | 100 to 1000 nM | –
5 | C[C@@H]1Oc2cc(N3CCCC3=O)ccc2-c2cnc(Nc3cnc4c(c3)N3C(=O)CC[C@H]3CO4)cc21 [Example 193, (S)-2-(((S)-5-methyl-8-(2-oxopyrrolidin-1-yl)-5H-chromeno[4,3-c]pyridin-3-yl)amino)-6,6a,7,8-tetrahydro-9H-pyrido[2,3-b]pyrrolo[1,2-d][1,4]oxazin-9-one] | ≤ 1 nM | – | ≤ 1 nM
6 | COC(=O)N1CCOc2ncc(Nc3cc4c(cn3)-c3cc(F)c(N5CCCC5=O)cc3OC4C)cc21 (stereo not drawn) [Example 150, methyl 7-((9-fluoro-5-methyl-8-(2-oxopyrrolidin-1-yl)-5H-chromeno[4,3-c]pyridin-3-yl)amino)-2,3-dihydro-1H-pyrido[2,3-b][1,4]oxazine-1-carboxylate] | – | 1 to 10 nM | ≤ 1 nM
7 | COCCC(=O)N1CCN(c2cncc(Nc3cc4c(cn3)-c3ccc(N5CCCC5=O)cc3OC4C)c2)CC1 (stereo not drawn) [Example 169, 1-(3-((5-(4-(3-methoxypropanoyl)piperazin-1-yl)pyridin-3-yl)amino)-5-methyl-5H-chromeno[4,3-c]pyridin-8-yl)pyrrolidin-2-one] | – | 10 to 100 nM | 1 to 10 nM

The next lines start with the values.

Row | IC50 [1] | IC50 [2] | IC50 [3] | SMILES
8 | ≤ 1 nM | 10 to 100 nM | 1 to 10 nM | CC1Oc2cc(N3CCCC3=O)ccc2-c2cnc(Nc3cnc4ccn(S(C)(=O)=O)c4c3)cc21 (stereo not drawn) [Example 57, 1-(5-methyl-3-((1-(methylsulfonyl)-1H-pyrrolo[3,2-b]pyridin-6-yl)amino)-5H-chromeno[4,3-c]pyridin-8-yl)pyrrolidin-2-one]
9 | ≤ 1 nM | 100 to 1000 nM | 1 to 10 nM | CC1Oc2cc(N3CCCC3=O)ccc2-c2cnc(Nc3cnc4c(c3)N(S(=O)(=O)C3CC3)CCO4)cc21 (stereo not drawn) [Example 52, 1-(3-((1-(cyclopropylsulfonyl)-2,3-dihydro-1H-pyrido[2,3-b][1,4]oxazin-7-yl)amino)-5-methyl-5H-chromeno[4,3-c]pyridin-8-yl)pyrrolidin-2-one]
10 | ≤ 1 nM | 1 to 10 nM | 1 to 10 nM | O=C1CCCN1c1ccc2c(c1)OCc1cc(Nc3cnc4c(c3)N(S(=O)(=O)C3CC3)CCO4)ncc1-2 [Example 74, 1-(3-((1-(cyclopropylsulfonyl)-2,3-dihydro-1H-pyrido[2,3-b][1,4]oxazin-7-yl)amino)-5H-chromeno[4,3-c]pyridin-8-yl)pyrrolidin-2-one]
11 | ≤ 1 nM | – | – | Cn1cnnc1-c1ccc2c(c1)OC(C)(C)c1nc(Nc3cnc4c(c3)N3C(=O)CC[C@H]3CO4)ncc1-2 [Example 210, (S)-2-((5,5-dimethyl-8-(4-methyl-4H-1,2,4-triazol-3-yl)-5H-chromeno[3,4-d]pyrimidin-3-yl)amino)-6,6a,7,8-tetrahydro-9H-pyrido[2,3-b]pyrrolo[1,2-d][1,4]oxazin-9-one]
12 | ≤ 1 nM | 10 to 100 nM | ≤ 1 nM | C[C@H]1Oc2cc(N3CCCC3=O)ccc2-c2cnc(Nc3cnc4c(c3)N3C(=O)CC[C@H]3CO4)cc21 [Example 192, (S)-2-(((R)-5-methyl-8-(2-oxopyrrolidin-1-yl)-5H-chromeno[4,3-c]pyridin-3-yl)amino)-6,6a,7,8-tetrahydro-9H-pyrido[2,3-b]pyrrolo[1,2-d][1,4]oxazin-9-one]
13 | ≤ 1 nM | 1 to 10 nM | ≤ 1 nM | CC1Oc2cc(N3CCCC3=O)ccc2-c2cnc(Nc3cnc4c(c3)N(C(=O)C(C)(C)O)CCO4)cc21 (stereo not drawn) [Example 59, 1-(3-((1-(2-hydroxy-2-methylpropanoyl)-2,3-dihydro-1H-pyrido[2,3-b][1,4]oxazin-7-yl)amino)-5-methyl-5H-chromeno[4,3-c]pyridin-8-yl)pyrrolidin-2-one]
14 | ≤ 1 nM | 1 to 10 nM | – | Cc1conc1-c1ccc2c(c1)OC(C)(C)c1cc(Nc3cnc4c(c3)N3C(=O)CC[C@H]3CO4)ncc1-2 [Example 209, (S)-2-((5,5-dimethyl-8-(4-methylisoxazol-3-yl)-5H-chromeno[4,3-c]pyridin-3-yl)amino)-6,6a,7,8-tetrahydro-9H-pyrido[2,3-b]pyrrolo[1,2-d][1,4]oxazin-9-one]
15 | ≤ 1 nM | 1 to 10 nM | – | Cn1cnnc1-c1ccc2c(c1)OC(C)(C)c1cc(Nc3cnc4c(c3)N3C(=O)CC[C@H]3CO4)ncc1-2 [Example 211, (S)-2-((5,5-dimethyl-8-(4-methyl-4H-1,2,4-triazol-3-yl)-5H-chromeno[4,3-c]pyridin-3-yl)amino)-6,6a,7,8-tetrahydro-9H-pyrido[2,3-b]pyrrolo[1,2-d][1,4]oxazin-9-one]
